Data on one molecule can be found in US20100086519A1, “Treatment of Hepatitis C Infection With Metalloporphyrins” (The Charlotte-Mecklenburg Hospital Authority d/b/a …, priority 2008, published 2010).

Series [1] relates to HCV core protein. The note with it: Huh-7/T7 cells, pFK-Con1/GDD, FIG. 7D; much less than in Con1 replicon system. On the technique in general: A replicon is a self-replicating genome or part of one, used to study replication in cells.
Protocol: (§1) In brief, total proteins (30-50 μg) were separated on 4-15% gradient SDS-PAGE gels. After electrophoretic transfer onto ImmunBlot PVDF membrane, membranes were blocked for 1 hour in PBS containing 5% nonfat dry milk and 0.1% Tween-20, and then incubated overnight with primary antibody at 4° C. The dilutions of the primary antibodies were as follows: 1:2000 for anti-HCV NS5A and anti-GAPDH antibodies, and 1:5000 for anti-HCV core antibody. The membranes were then incubated for 1 hour with horseradish peroxidase-conjugated secondary antibodies (dilution 1:10,000). Finally, the bound antibodies were visualized with the ECL-Plus chemiluminescence system according to the manufacturer's protocol. A Kodak 1DV3.6 computer-based imaging system (Rochester, N.Y.) was used to measure the relative optical density of each specific band obtained after Western blotting. Data are expressed as percentages of the controls (corresponding to the value obtained with the vehicle-treated cells), which were assigned values of one. […]
To evaluate whether ZnMP-mediated degradation of NS5A may play a role in inhibiting HCV replication, Con1 full-length HCV replicon Huh-7.5 cells were treated with different concentrations of ZnMP for 24 hours. […] HCV virus RNA was quantified by qRT-PCR, and the levels of HCV core, NS5A and GAPDH protein were measured by Western blots. […]
Series [2] has as its system HCV core protein.
Protocol: as §1
NS5A protein levels in 9-13 and Con1 cells, core protein levels in CNS3 cells, and NS5A and core protein levels in Huh-7/T7 cells transfected with pFK-Con1/GND (a plasmid encoding a replication deficient variant of Con1) exposed to different concentrations of ZnMP (0, 1, 5, 10 μM) for 4 hours were evaluated. […]
The subject of series [3] is HCV. In words: anti-viral activity (summary statement). The series is classed as cell-based, hepatitis C virus.
Series [4] has as its system 9-13 cells. The series can be described thus: CellTiter-Glo luminescent cell viability assay. The series is classed as cell-based, human. The procedure: The effect of ZnMP on cytotoxicity of treated cells was measured using CellTiter-Glo® Reagent by determining the number of viable cells based on quantitation of the ATP present, which signaled the presence of metabolically active cells. Cells were plated into a 96-well plate with 2500 to 5000 cells/well 24 hours before treatment. Cells were treated with indicated concentrations of ZnMP for 2, 6 and 24 hours in triplicate, an equal volume of CellTiter-Glo® Reagent was added to each well of cell culture medium. The luminescence was read on a Synergy HT microplate reader from Bio-Tek (Winooski, Vt.) with integration time set for 0.25 to 1 second. Decreases in luminescence were taken as an index of cellular cytotoxicity.
In this Example, the cytotoxicity of metalloporphyrins was evaluated. 9-13 cells were seeded into a 96-well plate 24 hours before treatment. Cells were incubated with the indicated concentrations of ZnMP for 0, 2, 6, 24 hours, and CellTiter-Glo® Reagent was added for CellTiter-Glo luminescent cell viability assay on a Synergy HT microplate reader with integration time set for 0.25 to 1 second. Decreases in luminescence were taken as an index of cellular cytotoxicity. * differs from vehicle, P<0.05, Data represent means±SE of triplicate determinations. […] Therefore, ZnMP concentrations not exceeding 20 μM for up to 6 hours or up to 10 μM for up to 24 hours were used.

Series [5] has as its target HCV NS5A protein (Hepatitis C virus genotype 1b, UniProt Q9WMX2). In words: NS5A protein levels in Huh-7/T7 cells transfected with pFK-Con1/GND. More on the design: processed into structural (C, E1, E2) and nonstructural (NS2, NS3, NS4A, NS4B, NS5A and NS5B) proteins; expressed in transfected cells; host or cells: Huh-7/T7 cells transiently transfected with pFK-Con1/GND. The series is classed as cell-based. The conditions noted are these: 24 h, FIG. 7C. From the text: Biochim Biophys Acta 2008; 1779:195-203.
Total RNA and proteins were extracted.

Read-outs that look alike come from different tables or passages of the source.

HCV NS5A protein, sequence (Q9WMX2 1973-2419): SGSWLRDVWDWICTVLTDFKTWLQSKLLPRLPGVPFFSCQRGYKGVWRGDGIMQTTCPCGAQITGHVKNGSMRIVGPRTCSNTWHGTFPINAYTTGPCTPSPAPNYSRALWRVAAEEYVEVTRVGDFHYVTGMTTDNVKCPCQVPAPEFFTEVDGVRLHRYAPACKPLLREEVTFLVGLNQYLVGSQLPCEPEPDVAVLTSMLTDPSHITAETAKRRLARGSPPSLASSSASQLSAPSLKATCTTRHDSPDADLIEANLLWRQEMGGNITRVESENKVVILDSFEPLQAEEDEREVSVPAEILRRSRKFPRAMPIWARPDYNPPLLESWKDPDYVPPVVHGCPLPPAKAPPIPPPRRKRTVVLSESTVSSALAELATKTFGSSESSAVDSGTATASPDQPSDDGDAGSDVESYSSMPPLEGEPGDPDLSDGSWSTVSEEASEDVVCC

Take `CCC1=C(C)c2cc3[nH]c(cc4nc(cc5[n-]c(cc1n2)c(C)c5CCC(=O)[O-])C(CCC(=O)[O-])=C4C)c(C)c3CC.[H+].[Zn+2]` [ZnMP, Zinc mesoporphyrin]: the “HCV core protein levels” value in series [1] was “reduction of core”; in series [2] (Huh-7/T7 cells transfected with pFK-Con1/GND, 0, 1, 5, 10 μM, 4 hours, FIG. 1D) it was “no detectable effects”; in series [2] (Huh-7/T7 cells, pFK-Con1/GND, 24 h, FIG. 7C), “remained unaffected”. The “anti-viral activity (summary statement)” value in series [3] was “display anti-viral activity”. Moreover, the cell viability result in series [4] (20 μM, 2-6 hours) is recorded as “no significant effect”; in series [4] (1-10 μM, 2-24 hours), “no significant effect”. In series [4] (20 μM, 24 hours, p<0.05), the cytotoxicity entry is listed as “significant cytotoxicity”. Further, the NS5A protein levels result in series [5] is “markedly decreased”.
